# Results: patent US5821084A, “Osteoblast-testicular protein tyrosine phosphatase” (The Regents of the University of Michigan, priority 1994, dated 1998)
# Assays:
# OST-PTP mRNA = type: cell-based, rat
# Text: Poly A^+ RNA was extracted from an array of adult rat tissues: uterus, ovary, testis, kidney, heart, liver, lung, spleen, brain, skeletal muscle, smooth muscle, pancreas and retina. Poly A^+ RNA derived from UMR106 was used as a standard to control for expression in bone. […] RNA fractionated in such gels was transferred to Magnagraph nylon membrane (MSI) in 20× SSC by capillary action method. Two different types of probe; riboprobe (RNA) or random primed cDNA probe, were used depending on the experiment. […] All DNA probes were labeled with ^32 P-a (3000 Ci/mM) by the Random Primers DNA labeling kit using manufacturer's recommended conditions (GibcoBRL Life Technologies). […] For hybridizations, 10^6 cpms/ml probe was added. Following hybridization, the blots were washed twice at room temperature in 1× SSC+0.1% SDS (30 minutes per wash), and then washed twice in 0.1× SSC+0.1% SDS (30 minutes per wash) once at room temperature and once at 68° C. The prehybridization/hybridization conditions for the DNA probes were the same as described above except the temperature was lowered to 43° C. […] The washes were done as described above. The results were visualized either by autoradiography or by scanning with a phosphorimager (Molecular Dynamics). All quantifications were normalized against the amount of cyclophilin message which was considered to be standard for any given conditions.
# Parathyroid hormone is an important bone hormone. […] The UMR106 cells were cultured as described above until confluence. The cells were then washed twice in phosphate buffered saline followed by incubation for 5 hours at 37° C. in serum free DMEM. After serum deprivation, 100 nM parathyroid hormone (PTH) was added to the cultures and incubation continued for 4, 8, 12, and 16 hours at 37° C. RNA was then isolated from the cells as described above.
# [1] = tested on: other two novel PTPase clones; test: Northern blot of other novel PTPase clones in PTH-treated UMR106 cells; type: cell-based, rat; details: PTH treatment
# Description: RNA was analyzed by Northern blot hybridization to determine the tissue specificity of the OST-PTP clone. Poly A^+ RNA was extracted from an array of adult rat tissues: uterus, ovary, testis, kidney, heart, liver, lung, spleen, brain, skeletal muscle, smooth muscle, pancreas and retina. Poly A^+ RNA derived from UMR106 was used as a standard to control for expression in bone. The RNA preparations were quantitated by absorbance at 260 nm and, depending on the message abundance, either total cellular RNA or poly A+ RNA was electrophoretically separated in a 6.6% formaldehyde-1%agarose gel. RNA fractionated in such gels was transferred to Magnagraph nylon membrane (MSI) in 20× SSC by capillary action method. Two different types of probe; riboprobe (RNA) or random primed cDNA probe, were used depending on the experiment. The riboprobe used for hybridization corresponded to the extracellular domain of OST-PTP, and was labeled by in vitro transcription using ^32 P-a (3000 Ci/mM) as described by manufacturers (Promega). […] All quantifications were normalized against the amount of cyclophilin message which was considered to be standard for any given conditions. […]
# UMR106 cells = details: cited from earlier work
substance,measurement,setting,value
parathyroid hormone [PTH],change of OST-PTP message at later time points,"OST-PTP mRNA; UMR106 cells, 100 nM PTH, later than 4 hours (8, 12, 16 hours)",further increases
same,PTH concentration effective in increasing OST-PTP transcripts,"OST-PTP mRNA; UMR106 cells, 18 hours",1 nM
same,effect on OST-PTP transcripts of exposure for less than 4 hours,"OST-PTP mRNA; UMR106 cells, regardless of concentration (10 pM-100 nM)",no significant effect
same,increase of PTP-OST (OST-PTP) message,"OST-PTP mRNA; umr106 cells, 4 h, 0.1 µM",≤ 5 fold
same,effect of PTH on the other two novel PTPase clones,[1],Neither of the other two novel PTPase clones were altered
same,effect on cell proliferation and DNA synthesis,UMR106 cells,"inhibit cell proliferation, and DNA synthesis"
